Reference: patent US20070282007A1, “TREATMENT OF PAIN DISORDERS WITH trans 4-(3,4-DICHLOROPHENYL)-1,2,3,4-TETRAHYDRO-1-NAPHTHALENAMINE AND ITS FORMAMIDE” (SEPRACOR INC., priority 2006, published 2007)

Key:
[1] = target: T1, recombinant human Norepinephrine (NE) transporter (Homo sapiens, UniProt P23975); test: Functional uptake of NE into cells expressing recombinant human transporters; assay type: cell-based; settings: read-out: IC50 inhibition of functional uptake in human transporters, Norepinephrine (NE)
T1 construct: expressed in transfected cells

DA transporter = target: T2, DA transporter (Homo sapiens, UniProt Q01959); test: Radioligand binding assay, DA transporter ([3H]GBR 12935 displacement); settings: human recombinant; [3H]GBR 12935 0.5 nM; read-out: Ki, Dopamine (DA) transporter
T2 construct: expressed in transfected cells
Procedure: (§1) The assays measured the affinity of the two compounds for transporters of the monoamines 5-HT, NE and DA. […] The transporters were human recombinant proteins expressed in mammalian cells. Binding to the 5-HT transporter was assessed by evaluating displacement of [^3H]paroxetine (0.1 nM). […] Binding to the NE transporter was assessed by evaluating displacement of [^3H]nisoxetine (0.3 nM).

Na^+ Channel Site 2 = test: In vitro radioligand binding assay, Na+ channel site 2
[2] = target: T3, recombinant human Dopamine (DA) transporter (Homo sapiens, UniProt Q01959); test: Functional uptake of DA into cells expressing recombinant human transporters; assay type: cell-based; settings: read-out: IC50 inhibition of functional uptake in human transporters, Dopamine (DA)
T3 construct: expressed in transfected cells

Long-Evans derived rats = test: Spontaneous locomotor activity study; assay type: in vivo, rat; settings: mean ± SEM
Procedure: The effects on locomotor activity were studied in Long-Evans derived rats following protocol outlined in Dews P., Br. J. Pharmacol., 8: 46 (1953).
This effect was still evident 2 hours following drug administration. On the basis of these studies, CNS effects and long duration of action may be anticipated at sufficient clinical doses.

NE transporter = target: T4, NE transporter (Homo sapiens, UniProt P23975); test: Radioligand binding assay, NE transporter ([3H]nisoxetine displacement); settings: human recombinant; [3H]nisoxetine 0.3 nM; read-out: Ki, Norepinephrine (NE) transporter
T4 construct: expressed in transfected cells
Procedure: as §1

Dopamine (DA) uptake = Dopamine (DA) uptake (Rattus norvegicus, UniProt P23977); test: biochemical
[3] = target: Ca^2+ Channel Verapamil Site; test: In vitro radioligand binding assay, Ca2+ channel verapamil site
Rat SNL Model = test: SNL model of neuropathic pain, mechanical hyperalgesia testing; assay type: in vivo
Procedure: The animals were anesthetized with isoflurane, the left L5 transverse process was removed, and the L5 and L6 spinal nerves were tightly ligated with 6-0 silk suture. The wound was then closed with internal sutures and external staples. Wound clips were removed 10-11 days following surgery.
Mechanical hyperalgesia testing: Baseline, post-injury and post-treatment values for […] mechanical sensitivity were evaluated using a Paw Pressure Analgesymeter (7200, Ugo Basile, Comerio, Italy) which generates a linearly increasing mechanical force. The mechanical nociceptive stimulus was applied to the plantar surface of the hind paws by a dome-shaped plastic tip placed between the 3rd and 4th metatarsus. […] Mechanical thresholds were defined as the force in grams at the first pain behavior, which includes paw withdrawal, struggle and/or vocalization. Paw pressure test was performed on each hind paw for each animal. The mean and standard error of the mean (SEM) were determined for each paw, in each treatment group. Mechanical hyperalgesia was evaluated 24 days post-surgery.
Ten rats were studied per group and the tests were performed blind. (1R,4S)-4-(3,4-dichlorophenyl)-1,2,3,4-tetrahydro-1-naphthalenamine (P) was evaluated at 3 doses (5, 10 and 15 mg/kg), administered orally and compared with a vehicle control group. Gabapentin (100 mg/kg) and duloxetine (30 mg/kg) administered orally under the same experimental conditions, were used as comparator substances. Mechanical allodynia and hyperalgesia testing were conducted at baseline and 1, 2 and 4 hours after test article administration.

H2 = H2 (Homo sapiens, UniProt P25021); test: In vitro radioligand binding assay, H2; settings: read-out: Ki, H2
5-HT2A = 5-HT2A (Homo sapiens, UniProt P28223); test: In vitro radioligand binding assay, 5-HT2A
hERG channel = hERG channel (Homo sapiens, UniProt Q12809); test: hERG channel current in stably transfected HEK293 cells
Procedure: Studies were conducted to determine effects on IKr, the rapidly activating delayed rectifier cardiac potassium current in the human heart. […] In this assay system, HERG channel current serves as a surrogate for IKr.

Beagle dogs = test: Cardiovascular safety study in conscious telemetered dogs; assay type: in vivo; settings: single oral doses 0.5, 1.5 and 5 mg/kg
Procedure: There were four animals/compound and each animal within the treatment group was exposed to the three doses (plus a empty capsule control), in a dose ramp-up manner with a minimum of 72 hours between doses.

rats = test: Formalin paw test in the rat (late phase), flinches counted; assay type: in vivo
Procedure: Rats were given an intraplantar injection of 5% formalin (50 μl) into the posterior left paw. […] The number of flinches was counted for 15 minutes, beginning 20 minutes after injection of formalin. Eight rats were studied per group. The test was performed blind. […] Data were analyzed by comparing treated groups with vehicle control using unpaired Mann-Whitney U tests.

M2 = M2 (Homo sapiens, UniProt P08172); test: In vitro radioligand binding assay, M2
[4] = 5 mg/kg p.o. 60 min before the test
[5] = 10 mg/kg p.o. 60 min before the test
[6] = 15 mg/kg p.o. 60 min before the test

T4 sequence (P23975 whole entry): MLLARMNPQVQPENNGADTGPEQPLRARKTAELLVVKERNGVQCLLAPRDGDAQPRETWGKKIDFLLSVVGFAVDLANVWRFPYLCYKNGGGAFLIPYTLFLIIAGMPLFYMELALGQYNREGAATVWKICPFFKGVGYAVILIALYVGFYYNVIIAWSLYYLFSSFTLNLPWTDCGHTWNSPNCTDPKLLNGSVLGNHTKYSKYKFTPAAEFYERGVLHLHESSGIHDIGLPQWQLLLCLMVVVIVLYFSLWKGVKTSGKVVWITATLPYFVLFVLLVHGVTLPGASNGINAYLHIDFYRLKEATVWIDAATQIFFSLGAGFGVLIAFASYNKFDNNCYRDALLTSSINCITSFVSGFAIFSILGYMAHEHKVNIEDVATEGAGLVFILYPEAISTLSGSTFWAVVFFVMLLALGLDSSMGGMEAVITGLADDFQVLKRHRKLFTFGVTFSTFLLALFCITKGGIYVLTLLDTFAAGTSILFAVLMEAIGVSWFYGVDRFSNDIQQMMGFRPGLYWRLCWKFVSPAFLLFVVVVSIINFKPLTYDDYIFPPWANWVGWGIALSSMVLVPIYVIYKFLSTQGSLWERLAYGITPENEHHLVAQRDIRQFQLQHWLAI
T1 sequence (P23975 whole entry): as above
T2 sequence (Q01959 whole entry): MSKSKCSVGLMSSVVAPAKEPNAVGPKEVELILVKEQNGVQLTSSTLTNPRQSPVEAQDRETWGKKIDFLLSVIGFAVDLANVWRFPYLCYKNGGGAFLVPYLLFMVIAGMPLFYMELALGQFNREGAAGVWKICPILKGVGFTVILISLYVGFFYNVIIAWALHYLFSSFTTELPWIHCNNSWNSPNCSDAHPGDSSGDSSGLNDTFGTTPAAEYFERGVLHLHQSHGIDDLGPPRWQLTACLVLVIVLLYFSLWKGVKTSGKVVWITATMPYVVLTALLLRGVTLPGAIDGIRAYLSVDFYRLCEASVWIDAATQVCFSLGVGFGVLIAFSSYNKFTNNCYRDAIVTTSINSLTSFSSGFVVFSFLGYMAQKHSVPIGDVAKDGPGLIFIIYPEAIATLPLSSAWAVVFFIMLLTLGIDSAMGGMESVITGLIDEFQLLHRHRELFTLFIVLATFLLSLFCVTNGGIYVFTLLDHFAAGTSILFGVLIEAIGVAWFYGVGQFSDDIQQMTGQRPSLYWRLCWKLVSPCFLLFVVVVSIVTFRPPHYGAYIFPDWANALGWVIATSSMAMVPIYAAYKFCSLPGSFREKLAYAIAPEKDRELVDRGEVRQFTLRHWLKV
T3 sequence (Q01959 whole entry): as above
Dopamine (DA) uptake, sequence (P23977 whole entry): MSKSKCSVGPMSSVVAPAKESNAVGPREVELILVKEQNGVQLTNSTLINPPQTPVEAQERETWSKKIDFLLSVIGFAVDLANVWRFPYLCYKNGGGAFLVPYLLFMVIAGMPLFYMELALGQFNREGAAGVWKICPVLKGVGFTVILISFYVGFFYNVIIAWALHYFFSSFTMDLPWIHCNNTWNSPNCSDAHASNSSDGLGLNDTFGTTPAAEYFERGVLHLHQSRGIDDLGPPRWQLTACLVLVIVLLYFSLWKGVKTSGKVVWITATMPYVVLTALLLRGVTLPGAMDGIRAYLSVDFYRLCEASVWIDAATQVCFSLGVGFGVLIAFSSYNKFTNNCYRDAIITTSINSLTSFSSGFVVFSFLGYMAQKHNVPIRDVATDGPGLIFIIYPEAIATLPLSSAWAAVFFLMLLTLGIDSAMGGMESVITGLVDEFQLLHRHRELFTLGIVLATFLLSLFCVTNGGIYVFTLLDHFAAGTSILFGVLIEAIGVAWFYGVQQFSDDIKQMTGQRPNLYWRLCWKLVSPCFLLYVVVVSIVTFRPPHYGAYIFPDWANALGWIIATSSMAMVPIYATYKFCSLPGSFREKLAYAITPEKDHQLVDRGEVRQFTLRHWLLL
5-HT2A, sequence (P28223 whole entry, species assumed): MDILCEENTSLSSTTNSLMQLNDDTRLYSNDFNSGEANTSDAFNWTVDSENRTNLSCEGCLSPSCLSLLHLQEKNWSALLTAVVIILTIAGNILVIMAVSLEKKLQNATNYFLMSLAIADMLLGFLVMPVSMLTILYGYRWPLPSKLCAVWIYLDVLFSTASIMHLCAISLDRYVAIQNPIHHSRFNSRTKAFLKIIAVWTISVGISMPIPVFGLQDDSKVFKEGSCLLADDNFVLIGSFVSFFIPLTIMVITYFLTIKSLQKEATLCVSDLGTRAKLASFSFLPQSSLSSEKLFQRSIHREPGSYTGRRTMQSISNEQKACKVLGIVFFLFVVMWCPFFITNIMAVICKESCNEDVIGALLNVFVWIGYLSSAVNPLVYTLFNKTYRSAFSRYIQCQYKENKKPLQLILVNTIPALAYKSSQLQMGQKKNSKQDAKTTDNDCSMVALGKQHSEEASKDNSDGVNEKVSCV
hERG channel, sequence (Q12809 whole entry): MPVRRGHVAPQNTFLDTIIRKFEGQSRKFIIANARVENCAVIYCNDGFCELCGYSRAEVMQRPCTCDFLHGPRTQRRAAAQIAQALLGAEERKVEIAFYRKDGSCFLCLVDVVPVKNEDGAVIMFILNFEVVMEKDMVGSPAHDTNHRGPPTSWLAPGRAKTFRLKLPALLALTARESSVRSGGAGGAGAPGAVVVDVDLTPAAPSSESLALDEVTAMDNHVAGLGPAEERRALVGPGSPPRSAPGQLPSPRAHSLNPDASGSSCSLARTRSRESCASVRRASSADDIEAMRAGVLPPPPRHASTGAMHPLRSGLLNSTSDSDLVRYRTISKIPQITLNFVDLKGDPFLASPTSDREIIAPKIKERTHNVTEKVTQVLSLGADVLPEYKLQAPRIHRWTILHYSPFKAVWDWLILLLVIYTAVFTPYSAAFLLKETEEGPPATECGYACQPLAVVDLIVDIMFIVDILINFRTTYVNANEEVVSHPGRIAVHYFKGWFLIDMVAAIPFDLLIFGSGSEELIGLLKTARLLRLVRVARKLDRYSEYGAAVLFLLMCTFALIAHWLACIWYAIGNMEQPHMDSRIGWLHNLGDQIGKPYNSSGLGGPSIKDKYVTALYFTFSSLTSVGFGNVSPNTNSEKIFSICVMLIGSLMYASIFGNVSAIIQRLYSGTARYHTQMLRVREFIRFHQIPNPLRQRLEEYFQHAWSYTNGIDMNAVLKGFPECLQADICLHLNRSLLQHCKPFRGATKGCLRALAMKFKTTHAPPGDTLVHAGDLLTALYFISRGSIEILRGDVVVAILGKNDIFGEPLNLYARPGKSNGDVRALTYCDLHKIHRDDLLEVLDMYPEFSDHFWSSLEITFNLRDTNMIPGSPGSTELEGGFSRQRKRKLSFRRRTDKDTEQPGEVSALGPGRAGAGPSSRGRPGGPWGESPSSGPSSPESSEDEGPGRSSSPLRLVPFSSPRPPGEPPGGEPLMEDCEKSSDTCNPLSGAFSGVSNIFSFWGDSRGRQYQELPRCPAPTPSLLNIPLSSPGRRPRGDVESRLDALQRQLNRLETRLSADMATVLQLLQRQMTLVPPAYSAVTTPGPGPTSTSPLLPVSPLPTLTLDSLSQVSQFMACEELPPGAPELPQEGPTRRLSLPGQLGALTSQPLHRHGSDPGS
H2, sequence (P25021 whole entry): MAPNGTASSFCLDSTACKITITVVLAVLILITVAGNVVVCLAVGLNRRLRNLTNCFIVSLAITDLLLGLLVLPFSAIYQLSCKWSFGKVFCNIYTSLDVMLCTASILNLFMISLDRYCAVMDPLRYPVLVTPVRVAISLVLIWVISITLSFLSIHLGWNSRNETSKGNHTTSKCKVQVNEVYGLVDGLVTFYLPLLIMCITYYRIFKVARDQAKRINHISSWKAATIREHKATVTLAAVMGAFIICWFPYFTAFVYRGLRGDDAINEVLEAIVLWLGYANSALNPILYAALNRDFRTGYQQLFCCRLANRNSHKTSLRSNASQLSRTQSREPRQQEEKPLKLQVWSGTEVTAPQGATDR
M2, sequence (P08172 whole entry): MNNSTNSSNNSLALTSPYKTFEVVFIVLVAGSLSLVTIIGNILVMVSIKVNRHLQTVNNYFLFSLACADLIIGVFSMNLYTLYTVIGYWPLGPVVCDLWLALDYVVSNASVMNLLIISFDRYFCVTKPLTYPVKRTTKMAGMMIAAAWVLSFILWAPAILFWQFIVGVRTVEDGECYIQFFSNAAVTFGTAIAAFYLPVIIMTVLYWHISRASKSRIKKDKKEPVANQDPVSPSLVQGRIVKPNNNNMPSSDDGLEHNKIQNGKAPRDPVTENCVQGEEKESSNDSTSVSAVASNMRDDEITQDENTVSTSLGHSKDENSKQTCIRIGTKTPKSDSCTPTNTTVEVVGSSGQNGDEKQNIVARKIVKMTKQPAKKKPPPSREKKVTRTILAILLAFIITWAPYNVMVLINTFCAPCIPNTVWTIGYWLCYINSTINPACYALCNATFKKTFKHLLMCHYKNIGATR

## N[C@@H]1CC[C@@H](c2ccc(Cl)c(Cl)c2)c2ccccc21 [Compound P, (1R,4S)-trans 4-(3,4-dichlorophenyl)-1,2,3,4-tetrahydro-1-napthalenamine]
[1]
  IC50: 15.6 nM
DA transporter
  Ki: 16 nM
Na^+ Channel Site 2
  Ki: 1000 nM
[2]
  IC50: 12.9 nM
Long-Evans derived rats; 2.5 mg/kg single i.p. dose
  Total Activity Counts, 71–80 Minutes: 49 ± 6
  Total Activity Counts, 91–100 Minutes: 54 ± 9
  Total Activity Counts, 111–120 Minutes: 34 ± 9
  Total Activity Counts, Total 1st Hour: 577 ± 54^1
  Total Activity Counts, Total 2nd Hour: 257 ± 36
Long-Evans derived rats; 5.0 mg/kg single i.p. dose
  Total Activity Counts, 71–80 Minutes: 38 ± 3
  Total Activity Counts, 91–100 Minutes: 26 ± 26
  Total Activity Counts, 111–120 Minutes: 23 ± 14
  Total Activity Counts, Total 1st Hour: 444 ± 91
  Total Activity Counts, Total 2nd Hour: 160 ± 32
NE transporter
  Ki: 20 nM
Dopamine (DA) uptake
  IC50: 6.4 nM
[3]
  Ki: 1000 nM
Rat SNL Model; 5 mg/kg PO, 0 h (Baseline)
  Mechanical Hyperalgesia, Paw Pressure Threshold (Mean ± SEM): 147 ± 17 g
Rat SNL Model; 5 mg/kg PO, 1 h
  Mechanical Hyperalgesia, Paw Pressure Threshold (Mean ± SEM): 183 ± 35 g
Rat SNL Model; 5 mg/kg PO, 2 h
  Mechanical Hyperalgesia, Paw Pressure Threshold (Mean ± SEM): 240 ± 32 g
Rat SNL Model; 5 mg/kg PO, 4 h
  Mechanical Hyperalgesia, Paw Pressure Threshold (Mean ± SEM): 257 ± 37 g
Rat SNL Model; 10 mg/kg PO, 0 h (Baseline)
  Mechanical Hyperalgesia, Paw Pressure Threshold (Mean ± SEM): 152 ± 18 g
Rat SNL Model; 10 mg/kg PO, 1 h
  Mechanical Hyperalgesia, Paw Pressure Threshold (Mean ± SEM): 213 ± 32 g
Rat SNL Model; 10 mg/kg PO, 2 h
  Mechanical Hyperalgesia, Paw Pressure Threshold (Mean ± SEM): 309 ± 27 g
Rat SNL Model; 10 mg/kg PO, 4 h
  Mechanical Hyperalgesia, Paw Pressure Threshold (Mean ± SEM): 282 ± 30 g
Rat SNL Model; 15 mg/kg PO, 0 h (Baseline)
  Mechanical Hyperalgesia, Paw Pressure Threshold (Mean ± SEM): 164 ± 22 g
Rat SNL Model; 15 mg/kg PO, 1 h
  Mechanical Hyperalgesia, Paw Pressure Threshold (Mean ± SEM): 281 ± 37 g
Rat SNL Model; 15 mg/kg PO, 2 h
  Mechanical Hyperalgesia, Paw Pressure Threshold (Mean ± SEM): 251 ± 37 g
Rat SNL Model; 15 mg/kg PO, 4 h
  Mechanical Hyperalgesia, Paw Pressure Threshold (Mean ± SEM): 269 ± 37 g
H2
  Ki: 4000 nM
5-HT2A
  Ki: 720 nM
hERG channel
  IC50: 800 nM
Beagle dogs
  effect on heart rate, blood pressure or ECG parameters (including QTc): no effect
rats; [4]
  NUMBER OF FLINCHES (20 to 35 min after formalin), mean ± s.e.m.: 89.0 ± 18.4NS
  NUMBER OF FLINCHES, % change from control: 0%
rats; [5]
  NUMBER OF FLINCHES (20 to 35 min after formalin), mean ± s.e.m.: 76.4 ± 15.2NS
  NUMBER OF FLINCHES, % change from control: −15%
rats; [6]
  NUMBER OF FLINCHES (20 to 35 min after formalin), mean ± s.e.m.: 44.6 ± 13.6
  NUMBER OF FLINCHES, % change from control: −50%
M2
  Ki: 5000 nM
